Patent US20110059962A1, “TRANSCRIPTION FACTOR MODULATING COMPOUNDS AND METHODS OF USE THEREOF” (priority 2009, published 2011)

Legend:
ExsA = biological target: T1, ExsA (Pseudomonas aeruginosa, UniProt P26993); test: Inhibition of ExsA-DNA binding, cell-free chemiluminescence assay; design: species or system P. aeruginosa
T1 construct: made in house
T1 sequence (P26993 1-278): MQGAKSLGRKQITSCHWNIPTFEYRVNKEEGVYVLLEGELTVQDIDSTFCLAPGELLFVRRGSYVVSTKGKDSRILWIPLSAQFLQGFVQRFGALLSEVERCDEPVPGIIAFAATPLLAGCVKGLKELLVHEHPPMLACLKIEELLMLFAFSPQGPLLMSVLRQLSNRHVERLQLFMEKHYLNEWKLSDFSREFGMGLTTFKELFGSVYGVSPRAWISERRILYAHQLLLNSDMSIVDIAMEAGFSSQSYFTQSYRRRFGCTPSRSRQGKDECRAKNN

[1] = tested on: Y. pseudotuberculosis cytotoxicity toward J774 cells; test: microbe, parasite or virus in culture; conditions: Yersinia pseudotuberculosis, J774, read-out: % Cytotoxicity
[2] = tested on: P. aeruginosa cytotoxicity toward J774 cells; test: Inhibition of P. aeruginosa cytotoxicity toward J774 macrophage-like cells, whole cell LDH release assay (CytoTox 96); design: dose or concentration left out as unconfirmed; conditions: Pseudomonas aeruginosa, J774, read-out: % Cytotoxicity
SlyA = biological target: T2, SlyA (Salmonella typhimurium, UniProt P40676); test: Inhibition of SlyA-DNA binding, cell-free chemiluminescence assay (specificity); design: species or system S. typhimurium enterica serovar Typhimurium
T2 construct: made in house; host or cells: E. coli
T2 sequence (P40676 1-144): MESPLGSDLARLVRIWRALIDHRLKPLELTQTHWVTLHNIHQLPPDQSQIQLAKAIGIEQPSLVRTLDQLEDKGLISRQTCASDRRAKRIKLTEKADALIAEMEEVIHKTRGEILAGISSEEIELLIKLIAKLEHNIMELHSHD

LcrF (VirF) = LcrF (VirF) (Yersinia pestis, UniProt P28808); test: biochemical; format: binding, Y. pseudotuberculosis
SoxS = biological target: T3, SoxS (Escherichia coli, UniProt P0A9E2); test: Inhibition of SoxS-DNA binding, cell-free chemiluminescence assay; design: species or system E. coli
T3 construct: made in house; host or cells: E. coli
T3 sequence (P0A9E2 1-107): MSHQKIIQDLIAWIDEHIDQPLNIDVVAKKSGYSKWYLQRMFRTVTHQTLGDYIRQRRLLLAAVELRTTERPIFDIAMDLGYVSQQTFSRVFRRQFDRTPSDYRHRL

[3] = tested on: pET-15b supercoiled plasmid DNA; test: Assay to detect direct DNA binding (UV fluorescence and agarose gel migration of plasmid DNA); conditions: 100 μg/mL; 100 ng pET-15b plasmid, 30 minutes at room temperature

Sequence of LcrF (VirF) (P28808 whole entry, looked up): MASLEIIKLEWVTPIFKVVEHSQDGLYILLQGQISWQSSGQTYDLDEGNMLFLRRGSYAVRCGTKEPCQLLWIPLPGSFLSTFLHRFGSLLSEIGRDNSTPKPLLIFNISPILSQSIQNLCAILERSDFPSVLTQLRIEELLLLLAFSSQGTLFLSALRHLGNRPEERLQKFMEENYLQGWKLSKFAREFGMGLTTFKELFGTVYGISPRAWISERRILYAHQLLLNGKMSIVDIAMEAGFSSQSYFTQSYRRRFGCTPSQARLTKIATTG

CC(=O)c1ccc(/C=C/C(=O)Nc2ccc(-c3nc4c(CC(=O)O)cc([N+](=O)[O-])cc4n3O)cc2)cc1 [Compound J, (2-{4-[(E)-3-(4-Acetyl-phenyl)-acryloylamino]-phenyl}-1-hydroxy-6-nitro-1H-benzoimidazol-4-yl)-acetic acid]
IC50 (ExsA): < 10 µM
activity at 50 µg/mL [1]: < 75%
activity [2]: < 75%
IC50 (SlyA): 25 to 50 µM
IC50 (LcrF (VirF)): < 10 µM
IC50 (SoxS): < 10 µM

N#Cc1ccc2nc(-c3ccc(NC(=O)c4ccc(N5CCOCC5)nc4)cc3)n(O)c2c1 [Compound P, N-[4-(6-Cyano-1-hydroxy-1H-benzoimidazol-2-yl)-phenyl]-6-morpholin-4-yl-nicotinamide]
IC50 (ExsA): < 10 µM
activity at 50 µg/mL [1]: 75 to 99%
activity [2]: 75 to 99%
IC50 (LcrF (VirF)): > 50 µM
IC50 (SoxS): > 50 µM

CC(=O)c1ccc(/C=C/C(=O)Nc2ccc(-c3nc4c(CC(=O)O)cc([N+](=O)[O-])cc4n3O)cc2)cn1 [Compound V, (2-{4-[(E)-3-(6-Acetyl-pyridin-3-yl)-acryloylamino]-phenyl}-1-hydroxy-6-nitro-1H-benzoimidazol-4-yl)-acetic acid]
IC50 (ExsA): < 10 µM
activity at 50 µg/mL [1]: < 75%
activity [2]: < 75%
IC50 (SlyA): 25 to 50 µM
IC50 (LcrF (VirF)): < 10 µM

CSc1ccc(/C=C/C(=O)Nc2ccc(-c3nc4ccc([N+](=O)[O-])cc4n3O)cc2)cn1 [G]
IC50 (ExsA): < 10 µM
activity at 50 µg/mL [1]: < 75%
activity [2]: < 75%
IC50 (LcrF (VirF)): 10 to 25 µM
IC50 (SoxS): > 50 µM

CCOc1ccc(-c2nc3ccc(-c4nc5ccc(N6CCN(C)CC6)cc5[nH]4)cc3[nH]2)cc1 [Hoechst 33342]
fluorescence under UV light and DNA migration on agarose gel [3]: bright fluorescence under UV light and a faint smear on the gel
